Results from ChEMBL document CHEMBL4177609, “Identification of pyrrolo[2,3-d]pyrimidines as potent HCK and FLT3-ITD dual inhibitors” (Bioorg Med Chem Lett, 2017).

Legend:
[1] = target: Receptor-type tyrosine-protein kinase FLT3 (Homo sapiens, UniProt P36888, ITD); test: Inhibition of recombinant human C-terminal FLT3 ITD mutant (571 to 993 residues) after 90 mins by mobility shift assay
[2] = test system: MV4-11; test: Growth inhibition of human MV4-11 cells after 3 days by Alamar blue assay; format: functional; conditions: MV4-11, 72 h
[3] = target: Tyrosine-protein kinase HCK (Homo sapiens, UniProt P08631)
Chain of Tyrosine-protein kinase HCK (P08631 whole entry): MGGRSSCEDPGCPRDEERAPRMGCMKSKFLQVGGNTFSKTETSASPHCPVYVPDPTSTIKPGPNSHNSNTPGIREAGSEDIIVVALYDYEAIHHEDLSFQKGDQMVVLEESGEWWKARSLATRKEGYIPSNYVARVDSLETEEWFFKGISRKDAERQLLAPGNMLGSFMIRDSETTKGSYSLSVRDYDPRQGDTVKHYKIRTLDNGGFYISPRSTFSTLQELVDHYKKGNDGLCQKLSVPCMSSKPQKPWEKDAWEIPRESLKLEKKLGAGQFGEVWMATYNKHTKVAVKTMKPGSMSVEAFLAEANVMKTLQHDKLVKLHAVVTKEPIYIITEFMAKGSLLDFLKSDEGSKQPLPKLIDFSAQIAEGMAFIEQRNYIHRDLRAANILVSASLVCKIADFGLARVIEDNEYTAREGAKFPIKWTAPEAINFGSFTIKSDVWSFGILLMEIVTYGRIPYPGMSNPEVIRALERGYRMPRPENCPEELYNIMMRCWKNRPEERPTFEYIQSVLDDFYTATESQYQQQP
Description: Inhibition of recombinant human HCK SH3-SH2-KD (75 to 526 residues) after 20 mins by mobility shift assay

Chain of Receptor-type tyrosine-protein kinase FLT3 (P36888 whole entry, looked up, stated change not applied, the tested form may be a part): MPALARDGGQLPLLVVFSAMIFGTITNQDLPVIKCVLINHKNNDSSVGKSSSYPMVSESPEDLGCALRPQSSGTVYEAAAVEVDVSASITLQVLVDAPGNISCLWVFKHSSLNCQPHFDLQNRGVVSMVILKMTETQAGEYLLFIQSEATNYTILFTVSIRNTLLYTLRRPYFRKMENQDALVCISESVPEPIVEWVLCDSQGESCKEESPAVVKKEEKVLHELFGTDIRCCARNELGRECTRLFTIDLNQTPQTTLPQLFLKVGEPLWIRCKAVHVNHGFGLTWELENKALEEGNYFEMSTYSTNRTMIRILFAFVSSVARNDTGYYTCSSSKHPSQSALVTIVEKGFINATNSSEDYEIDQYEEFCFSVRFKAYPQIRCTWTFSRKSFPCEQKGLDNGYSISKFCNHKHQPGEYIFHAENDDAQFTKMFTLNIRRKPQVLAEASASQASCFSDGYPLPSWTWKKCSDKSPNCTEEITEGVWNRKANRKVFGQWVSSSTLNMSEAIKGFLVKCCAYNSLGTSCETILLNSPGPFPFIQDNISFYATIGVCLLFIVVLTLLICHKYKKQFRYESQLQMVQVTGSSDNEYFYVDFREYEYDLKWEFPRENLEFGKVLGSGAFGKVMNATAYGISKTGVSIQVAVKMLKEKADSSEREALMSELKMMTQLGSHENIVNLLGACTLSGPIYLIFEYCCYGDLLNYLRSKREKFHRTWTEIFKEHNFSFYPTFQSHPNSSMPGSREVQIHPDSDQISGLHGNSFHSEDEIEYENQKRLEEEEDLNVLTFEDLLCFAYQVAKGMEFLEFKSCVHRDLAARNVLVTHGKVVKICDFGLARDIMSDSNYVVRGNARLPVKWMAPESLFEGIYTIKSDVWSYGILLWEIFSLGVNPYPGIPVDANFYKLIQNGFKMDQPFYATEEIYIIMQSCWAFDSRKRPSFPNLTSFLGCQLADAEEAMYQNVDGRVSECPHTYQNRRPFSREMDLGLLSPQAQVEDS

Row | SMILES | IC50 [1] [nM] | GI50 [2] [nM] | IC50 [3] [nM]
1 | Nc1ncnc2c1c(-c1ccc(Oc3ccccc3)cc1)cn2[C@H]1CC[C@H](N[C@H]2CCOC2=O)CC1 | 25 | – | 28
2 | Nc1ncnc2c1c(-c1ccc(Oc3ccccc3)cc1)cn2[C@H]1CC[C@@H](N[C@H](CO)C(=O)O)CC1 | 12 | – | 23
3 | Nc1ncnc2c1c(-c1ccc(Oc3ccccc3)cc1)cn2[C@H]1CC[C@@H](N[C@@H](CO)C(=O)O)CC1 | 13 | – | 40
4 | Nc1ncnc2c1c(-c1ccc(Oc3ccccc3)cc1)cn2[C@H]1CC[C@@H](N[C@@H](Cc2ccccc2)C(=O)O)CC1 | 3.1 | – | 74
5 | Nc1ncnc2c1c(-c1ccc(Oc3ccccc3)cc1)cn2[C@H]1CC[C@H](N[C@H](Cc2ccccc2)C(=O)O)CC1 | 27 | – | 24
6 | C[C@@H](N[C@H]1CC[C@@H](n2cc(-c3ccc(Oc4ccccc4)cc3)c3c(N)ncnc32)CC1)C(=O)O | 23 | – | 36
7 | Nc1ncnc2c1c(-c1ccc(Oc3ccccc3)cc1)cn2[C@H]1CC[C@H](N2CCC[C@H]2C(=O)O)CC1 | 26 | – | 52
8 | CC(C)CCN[C@H]1CC[C@H](n2cc(-c3ccc(Oc4ccccc4)cc3)c3c(N)ncnc32)CC1 | 56 | – | 226
9 | CC(C)C[C@H](N[C@H]1CC[C@@H](n2cc(-c3ccc(Oc4ccccc4)cc3)c3c(N)ncnc32)CC1)C(=O)O | 23 | – | 105
10 | CC(C)C[C@@H](N[C@H]1CC[C@H](n2cc(-c3ccc(Oc4ccccc4)cc3)c3c(N)ncnc32)CC1)C(=O)O | 53 | – | 27
11 | C[C@H](N[C@H]1CC[C@@H](n2cc(-c3ccc(Oc4ccccc4)cc3)c3c(N)ncnc32)CC1)C(=O)O | 20 | – | 73
12 | Nc1ncnc2c1c(-c1ccc(Oc3ccccc3)cc1)cn2[C@H]1CC[C@@H](N[C@H](Cc2ccccc2)C(=O)O)CC1 | 2.6 | 26 | 18
13 | Nc1ncnc2c1c(-c1ccc(Oc3ccccc3)cc1)cn2[C@H]1CC[C@H](N2CCC[C@@H]2C(=O)O)CC1 | 126 | – | 200
14 | Nc1ncnc2c1c(-c1ccc(Oc3ccccc3)cc1)cn2[C@H]1CC[C@@H](N2CCC[C@H]2C(=O)O)CC1 | 20 | – | 79
15 | CC(C)C[C@@H](N[C@H]1CC[C@@H](n2cc(-c3ccc(Oc4ccccc4)cc3)c3c(N)ncnc32)CC1)C(=O)O | 35 | – | 137
16 | C[C@@H](N[C@H]1CC[C@H](n2cc(-c3ccc(Oc4ccccc4)cc3)c3c(N)ncnc32)CC1)C(=O)O | 39 | – | 36
17 | CC(C)CCN[C@H]1CC[C@@H](n2cc(-c3ccc(Oc4ccccc4)cc3)c3c(N)ncnc32)CC1 | 44 | – | 119
18 | Nc1ncnc2c1c(-c1ccc(Oc3ccccc3)cc1)cn2[C@H]1CC[C@@H](N[C@@H](Cc2ccc(O)cc2)C(=O)O)CC1 | 5 | – | 39
19 | Nc1ncnc2c1c(-c1ccc(Oc3ccccc3)cc1)cn2[C@H]1CC[C@@H](N2CCC[C@@H]2C(=O)O)CC1 | 16 | – | 65

Molecules with a lower IC50 [3], results first:

Row | IC50 [1] [nM] | GI50 [2] [nM] | IC50 [3] [nM] | SMILES
20 | 33 | – | 15 | Nc1ncnc2c1c(-c1ccc(Oc3ccccc3)cc1)cn2[C@H]1CC[C@H](NCCC(=O)O)CC1
21 | 11 | – | 15 | Nc1ncnc2c1c(-c1ccc(Oc3ccccc3)cc1)cn2[C@H]1CC[C@H](N[C@H](Cc2ccc(O)cc2)C(=O)O)CC1
22 | 5 | 18 | 13 | Nc1ncnc2c1c(-c1ccc(Oc3ccccc3)cc1)cn2[C@H]1CC[C@@H](N[C@H](Cc2ccc(O)cc2)C(=O)O)CC1
23 | 32 | – | 12 | Nc1ncnc2c1c(-c1ccc(Oc3ccccc3)cc1)cn2[C@H]1CC[C@@H](NCC(=O)O)CC1
24 | 24 | – | 7.5 | Nc1ncnc2c1c(-c1ccc(Oc3ccccc3)cc1)cn2[C@H]1CC[C@H](N[C@@H](Cc2ccccc2)C(=O)O)CC1
25 | 28 | – | 7.4 | Nc1ncnc2c1c(-c1ccc(Oc3ccccc3)cc1)cn2[C@H]1CC[C@H](N[C@@H](Cc2ccc(O)cc2)C(=O)O)CC1
26 | 39 | – | 6.9 | C[C@H](N[C@H]1CC[C@H](n2cc(-c3ccc(Oc4ccccc4)cc3)c3c(N)ncnc32)CC1)C(=O)O
27 | 17 | – | 6.3 | Nc1ncnc2c1c(-c1ccc(Oc3ccccc3)cc1)cn2[C@H]1CC[C@H](N[C@H](CO)C(=O)O)CC1
28 | 27 | 29 | 5.4 | Nc1ncnc2c1c(-c1ccc(Oc3ccccc3)cc1)cn2[C@H]1CC[C@@H](N[C@H]2CCOC2=O)CC1
29 | 14 | 21 | 4.4 | CC(C)C[C@H](N[C@H]1CC[C@H](n2cc(-c3ccc(Oc4ccccc4)cc3)c3c(N)ncnc32)CC1)C(=O)O
30 | 28 | 98 | 3.7 | Nc1ncnc2c1c(-c1ccc(Oc3ccccc3)cc1)cn2[C@H]1CC[C@H](NCC(=O)O)CC1
31 | 18 | > 100 | 1.8 | Nc1ncnc2c1c(-c1ccc(Oc3ccccc3)cc1)cn2[C@H]1CC[C@H](N[C@@H](CO)C(=O)O)CC1
32 | – | 40 | 0.4 | CN1CCN([C@H]2CC[C@H](n3cc(-c4ccc(Oc5ccccc5)cc4)c4c(N)ncnc43)CC2)CC1
